According to PMC5614969, “High-Affinity Functional Fluorescent Ligands for Human β-Adrenoceptors” (Scientific Reports, 2017):

Experiments:
β2AR [1] = molecular target: T1, β2AR (Homo sapiens, UniProt P07550); experiment: TR-FRET receptor-ligand saturation binding assay, Tag-lite β2AR cells; conditions: for binding selectivity β2AR over β1AR: TR-FRET assay, ratio of Kd app; for Kd: β2AR, 2 h at room temperature, read-out: Kd app
Experimental: To confirm whether the affinity of carazolol-KK114 (24) is sufficient for the intended imaging experiments and to evaluate its β2/β1AR selectivity, we performed a TR-FRET assay in Tag-lite β1AR or β2AR transfected cells (Cisbio) labeled with Tb^3+ cryptate (Lumi4-Tb) (Fig. 3c)[39]. […] (Fig. 3d, Supplementary Fig. 5b). The high affinities of both fluorescent ligands enabled the imaging experiments.
K d determination was performed on Tag-lite β1AR (Cisbio, Cat. No. C1TT1BETA1) or β2AR (Cisbio, Cat. No. C1TT1BETA2) Tb^3+ cryptate labeled transfected cells. The β1AR or β2AR cells labeled with SNAP-Terbium interact with the specific ligand labeled with the corresponding fluorophore. The fraction of bound ligand is proportional to the FRET signal. Donor Tb^3+ cryptate: exc. 340 nm, em. 490 nm, 546 nm, 583 nm, 620 nm; acceptor KK114: exc. 630 nm, em. 655 nm. The cells were thawed and suspended in 4.5 ml Tag-lite buffer (Cisbio, Cat. No. LABMED) according to the product information and transferred to half-area white polystyrene 96 well plates (Sigma, Cat. No. CLS3693) by 20 µl per well. 20 µl of a fluorescent probe or control compound in Tag-lite buffer was added to each well and incubated for 2 h at room temperature (20 °C) before readout. FRET readout was performed on a multiwell plate reader Spark 20 M (Tecan) at room temperature. […] All probe and control compound dilutions were prepared in DMSO, so that the final DMSO concentration was kept constant throughout the titration series. The ratio of the acceptor and donor emission signals was calculated for each individual well using equation (3):3 Ratio=Signal655nm−BackgroundSignal/Signal620nm−BackgroundSignal
Luminescence background signal was measured in wells containing 40 µl of Tag-lite buffer only. Specific binding was calculated by subtracting nonspecific binding ratio from total binding ratio at each fluorescent ligand concentration. K d ^app is determined by fitting data using GraphPad Prism 6 to one site specific binding with Hill slope equation (4):4 Specificsingalratio=A∗[probe]^h/(Kdapp)^h+[probe]^h
A is amplitude of specific signal ratio, [probe] - probe concentration, K d ^app - the ligand concentration needed to achieve a half-maximum binding at equilibrium, h - the Hill slope.

[2] = Fluorescence increase upon addition of SDS to probe solutions; format: physicochemical; conditions: addition of 0.1% SDS to ligand in PBS pH 7.4 with 1 mg/ml BSA; mean ± SD, n=3
Experimental: Fluorescence spectra of 1 µM solution of fluorescent dyes and ligands in PBS pH 7.4, PBS pH 7.4 + 1 mg/ml BSA (Sigma) and with or without 0.1% SDS (Acros Organics) were recorded on a multiwell plate reader Spark 20 M (Tecan) in half-area black 96-well plates (Greiner Bio-One, cat. 675076) at room temperature (25 °C) after 2 h incubation. Fluorescence emission was recorded from 600 nm to 800 nm with excitation at 580 nm. The emission bandwidth for all measurements was set to 5 nm. The spectra were averaged from 3 individual experiments. Ratios F(BSA+SDS)/F(BSA) of fluorescence signals at 635 nm for 610CP, 645 nm for BODIPY 630/650-X and 655 nm for KK114 conjugates were calculated. The obtained results are summarized (Table 1 and Supplementary Fig. 7).

β2AR [3] = molecular target: T1, β2AR; experiment: Staining and competitive binding in CAPAN-1 cells at endogenous β2AR expression; format: cell-based; conditions: for receptor staining: 100 nM probe; for competitive binding with excess unlabeled ligand: 100 nM probe (5 nM ab118171) with 10 µM BI-167107 or carazolol
Experimental: To study the selectivity of β2AR staining at the endogenous expression levels, which are much lower compared to those in transiently β2AR expressing U2OS cells, we tested the performance of BI-167107 probes in pancreatic CAPAN-1 cells (Fig. 7c–f). […] Low density of β2AR in the plasma membrane of CAPAN-1 cells allowed us to measure of the lateral resolution in the STED images. When the cells were incubated with 100 nM BI-PEG-KK114 (18) ligand, we observed two-fold improvement in the resolution resulting in apparent structures of ~100 nm (Fig. 7d; Supplementary Table 4).
For staining of CAPAN-1 cells, fluorescent probes or mixtures of a probe and a competitor were incubated in McCoy’s 5a Medium Modified supplemented with 10% fetal bovine serum (FBS) for 30–40 min at room temperature. Afterwards, the samples were washed two times with HBSS, and cells were imaged in DMEM (Thermo Fisher Scientific) supplemented with GlutaMAX-1 (Thermo Fisher Scientific) and 10% fetal bovine serum (FBS). Imaging performed on Leica SP8 (Leica Microsystems) or Abberior STED (Abberior Instruments GmbH) microscopes.

T1 sequence (P07550 whole entry): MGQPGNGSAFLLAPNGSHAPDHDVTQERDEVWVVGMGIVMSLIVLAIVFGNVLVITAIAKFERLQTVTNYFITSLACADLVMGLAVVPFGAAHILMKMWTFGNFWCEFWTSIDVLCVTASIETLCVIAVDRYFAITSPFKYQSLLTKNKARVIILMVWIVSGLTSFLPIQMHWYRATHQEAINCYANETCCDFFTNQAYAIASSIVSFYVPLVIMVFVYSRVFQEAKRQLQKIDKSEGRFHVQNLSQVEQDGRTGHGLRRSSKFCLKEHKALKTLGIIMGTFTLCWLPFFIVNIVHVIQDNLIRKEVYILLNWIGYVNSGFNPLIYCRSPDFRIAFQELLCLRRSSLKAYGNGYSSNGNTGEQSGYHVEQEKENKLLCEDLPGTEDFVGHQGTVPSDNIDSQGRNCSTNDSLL

SMILES	binding selectivity β2AR over β1AR (β2AR [1])	Kd (β2AR [1]) [nM]	Fluorescence increase (F BSA+SDS / F BSA) [2]	receptor staining (β2AR [3])	competitive binding with excess unlabeled ligand (β2AR [3])
Cc1c(CCC(=O)NCCOCCOCCNC(=O)CCN(C)C(=O)c2c(F)c(F)c(F)c(F)c2C2=c3cc4c5c(c3Oc3c2cc2c6c3CCCN6C(C)(C)C=C2CS(=O)(=O)O)CCC[N+]=5C(C)(C)C=C4CS(=O)(=O)[O-])cccc1CC(C)(C)NCC(O)c1ccc(O)c2c1OCC(=O)N2 (stereo not shown) [BI-PEG-KK114 (18)]	nine-fold	7.2 ± 0.6	1.4±0.1	plasma membrane localized receptor staining	no background fluorescence
CN(CCC(=O)NCCOCCOCCOCCOCCC(=O)NCCC(C)(C)NCC(O)COc1cccc2[nH]c3ccccc3c12)C(=O)c1c(F)c(F)c(F)c(F)c1C1=c2cc3c4c(c2Oc2c1cc1c5c2CCCN5C(C)(C)C=C1CS(=O)(=O)O)CCC[N+]=4C(C)(C)C=C3CS(=O)(=O)[O-] (stereo not shown) [Carazolol-KK114 (24)]	three-fold	14.7 ± 0.9	5.9±1.5	plasma membrane localized receptor staining	efficiently displaced
